Here are results for one compound from PMC12198407, “Preclinical and first-in-human of purinostat mesylate, a novel selective HDAC I/IIb inhibitor, in relapsed/refractory multiple myeloma and lymphoma” (Signal Transduction and Targeted Therapy, 2025).

Each structure is given as a SMILES string. Like-named read-outs stand apart in the source and are kept apart here.

Data set [1] relates to CYP3A4. As to the kind of experiment: CYP induction, cryopreserved human liver cells. The class given is in vitro ADME. As to conditions: 0.0500, 0.500, 5.00 µM; three donors.
The test system of data set [2] is 8 MM and 8 lymphoma cell lines. The data set is described as follows: Antiproliferation assay, cell line panel (CCK8). The class given is cell-based. The following applies: Homo sapiens; 72 h, all 16 cell lines. As for the experimental part:
PM, panobinostat, Pom and DXM were dissolved in DMSO and stored at -20°C freezer. Cells were seeded at a density of 1.0-3.0 × 10^4 cells/well/100 μL in 96-well plates. After overnight incubation, cells were treated with the drug-containing culture medium for 24, 48, or 72 hours, and cell viability was measured using CCK8 (Oriscience, Chengdu, China) at the indicated time points with Biotek Cytation 3 at a wavelength of 450 nm. The IC50 values were calculated using GraphPad Prism 9.4.1, and Calcusyn 2.0 software was employed to calculate the CI values.

In data set [3] the test system is double-expressing lymphoma (DEL) PDX. As to the kind of experiment: DEL PDX mouse model. The class given is in vivo, mice. As to conditions: 18 days; PM 5 mg/kg or 10 mg/kg. As for the experimental part: All animal studies were performed in accordance with the guidelines approved by the Institutional Animal Care and Use Committee of Sichuan University, Chengdu, China. Six- to seven-week-old female NOD-SCID mice were purchased from Beijing Vital River Laboratory Animal Technology Co., Ltd. (China). Mice received subcutaneous inoculation with 0.5 × 10^7 MM1S or RPMI-8226 cells, to establish xenograft models. Heterotopic PDX models were generated as previously described.[54] When tumors reached 150–250 mm^3, mice were treated with various compounds. PM and panobinostat were administered intravenously three times a week at 5 mg/kg in combination therapy. […] Tumor volume (tumor volume (mm^3) = π/6 × length × width^2) and body weights were measured every two days. At the end, tumor tissues were weighed, and antitumor activity was evaluated by the tumor inhibition rate = (1 − tumor weight of treatment group/tumor weight of vehicle group) × 100%.

The subject of data set [4] is BCR-ABL positive B-ALL PDX. The data set is described as follows: PDX model of clinical B-ALL patient. The class given is in vivo, NOD/SCID mice. An excerpt:
A clinical sample from a B-ALL patient was obtained, characterized by BCR-ABL positivity and relapse after first-line treatment.

Data set [5] deals with mouse BM-derived osteoclasts (M-CSF, RANKL). The data set is described as follows: Osteoclast formation, TRAP staining. The class given is cell-based, C57BL/6 mice. As to conditions: M-CSF and RANKL induced. As for the experimental part: Primary mouse BM cells were collected from 6-to-8 weeks C57BL/6 mice, and 1.0 × 10^5 cells were seeded into 48-well plates with α-MEM containing 10% FBS and 40 ng/mL M-CSF (PeproTech, catalog # 315-02) for 3 days to recruit macrophage and then induce osteoclast differentiation plus 50 ng/mL RANKL (R&D, catalog # 462-TEC-010/CF) with or without indicated concentration of PM for 4 days. Half-media changes were carried out every 2 days. The TRAP staining kit was purchased from Sigma-Aldrich (CS0704), and TRAP staining was performed according to the kit instructions.

Data set [6] has as its target T1, CYP3A4 (Homo sapiens, UniProt P08684).
T1 construct: human liver microsomal cytochrome P450 isoenzymes; from tissue; host or cells: human liver microsomes
The data set is described as follows: CYP inhibition, human liver microsomes. The class given is in vitro ADME.

A further data set has as its target HDAC2 (Homo sapiens, UniProt Q92769). As to the kind of experiment: HDAC enzyme activity in vitro. The class given is biochemical.
The next data set deals with HDAC5 (Homo sapiens, UniProt Q9UQL6). The data set is described as follows: HDAC enzyme activity in vitro. The class given is biochemical.
HDAC5, sequence (Q9UQL6 whole entry): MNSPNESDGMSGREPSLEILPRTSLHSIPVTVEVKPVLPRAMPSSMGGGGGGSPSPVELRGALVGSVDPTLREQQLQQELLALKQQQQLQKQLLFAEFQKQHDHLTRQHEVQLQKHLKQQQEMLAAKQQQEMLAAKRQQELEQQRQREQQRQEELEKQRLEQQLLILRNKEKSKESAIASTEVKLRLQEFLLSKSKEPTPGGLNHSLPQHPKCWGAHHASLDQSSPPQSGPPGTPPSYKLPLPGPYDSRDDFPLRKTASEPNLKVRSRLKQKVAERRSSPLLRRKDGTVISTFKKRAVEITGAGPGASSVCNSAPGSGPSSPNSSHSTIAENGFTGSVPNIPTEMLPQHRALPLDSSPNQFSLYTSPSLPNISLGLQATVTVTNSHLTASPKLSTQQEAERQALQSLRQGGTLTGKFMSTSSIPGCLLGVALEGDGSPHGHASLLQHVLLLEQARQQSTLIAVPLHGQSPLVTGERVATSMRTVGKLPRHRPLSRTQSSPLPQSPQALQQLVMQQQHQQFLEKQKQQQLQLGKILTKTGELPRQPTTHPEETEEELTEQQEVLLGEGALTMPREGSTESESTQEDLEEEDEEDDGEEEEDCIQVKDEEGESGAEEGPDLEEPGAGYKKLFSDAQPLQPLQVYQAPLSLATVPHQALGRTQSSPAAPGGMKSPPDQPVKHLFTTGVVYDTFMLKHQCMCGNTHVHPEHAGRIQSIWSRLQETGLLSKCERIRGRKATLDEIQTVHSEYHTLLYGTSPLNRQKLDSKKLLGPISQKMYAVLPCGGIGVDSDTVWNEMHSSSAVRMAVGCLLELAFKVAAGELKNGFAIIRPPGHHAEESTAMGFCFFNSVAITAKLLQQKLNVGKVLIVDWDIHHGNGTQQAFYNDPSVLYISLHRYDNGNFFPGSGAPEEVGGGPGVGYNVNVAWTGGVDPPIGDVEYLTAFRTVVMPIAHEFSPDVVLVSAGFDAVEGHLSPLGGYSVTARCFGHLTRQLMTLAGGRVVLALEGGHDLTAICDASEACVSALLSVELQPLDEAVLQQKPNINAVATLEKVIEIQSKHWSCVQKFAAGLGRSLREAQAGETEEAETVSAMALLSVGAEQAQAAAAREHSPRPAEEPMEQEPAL
Data set [7] relates to class I HDAC substrates histone H3 and H4 in SUDHL-6, Daudi, Raji, Ramos, RPMI-8226. As to the kind of experiment: Cellular acetylation of histone H3 and H4. The class given is cell-based, human. An excerpt: The results of these cell experiments were consistent with the in vitro enzyme activity assay results.
The nature of data set [8]: Chronic toxicity test, 4 weeks. The class given is in vivo, rats. As for the experimental part: In this study, the low, medium, and high dose groups were set at 3, 10, and 30 mg/kg, respectively. The blank formulation was set at low and high doses of 45 and 450 mg/kg, corresponding to the doses of hydroxypropyl beta-cyclodextrin in the low and high dose groups of injectable Purinostat Mesylate. Dosing occurred once every two days, three times a week, for a total of four weeks, with some animals undergoing a four-week recovery period after the treatment ended. The main results indicated no mortality. In the high-dose group, symptoms included sparse fur, reduced activity, and scabbing at the injection site. […] The primary toxic target organs or systems included the immune system (spleen, thymus, various lymph nodes), submandibular gland, bone marrow, testis, and epididymis.

The subject of data set [9] is human multiple myeloma RPMI-8226. The class given is in vivo.
A further data set concerns HDAC I/IIb. More on the design: method as in PMID 27186676, PMID 31439580. The following applies: range over isoforms; read-out: IC50 against HDAC I/IIb; cited from earlier work.
Another data set concerns CHL cells. As to the kind of experiment: In vitro chromosomal aberration test. The class given is cell-based. The following applies: 30–1000 µg/mL 4 h ±S9; 3.75–30 µg/mL 24 h. The procedure:
This experiment employed two methods: one without the S9 metabolic activation system and one with the S9 metabolic activation system. The method without the S9 metabolic activation system utilized two exposure times of 4 hours and 24 hours, while the method with the S9 metabolic activation system used a 4-hour exposure time. The test was conducted using a 2% dosing volume ratio. Under the 4-hour exposure conditions, the final concentrations of Purinostat Mesylate were set at 30, 100, 300, and 1000 µg/mL; under the 24-hour exposure conditions, the final concentrations were set at 3.75, 7.5, 15, and 30 µg/mL. Additionally, a solvent control group (DMSO) and a positive control group (administering the appropriate positive agent) were included. After the culture period for each concentration group, cells were collected and prepared for microscopy. After Giemsa staining, 1000 cells were observed under a microscope to record the number of cells in the metaphase stage and calculate the mitotic index inhibition rate for each group. For chromosome aberration assessment, 200 metaphase cells were observed, and the chromosome aberration rate was calculated for each group.

T1 sequence (P08684 whole entry): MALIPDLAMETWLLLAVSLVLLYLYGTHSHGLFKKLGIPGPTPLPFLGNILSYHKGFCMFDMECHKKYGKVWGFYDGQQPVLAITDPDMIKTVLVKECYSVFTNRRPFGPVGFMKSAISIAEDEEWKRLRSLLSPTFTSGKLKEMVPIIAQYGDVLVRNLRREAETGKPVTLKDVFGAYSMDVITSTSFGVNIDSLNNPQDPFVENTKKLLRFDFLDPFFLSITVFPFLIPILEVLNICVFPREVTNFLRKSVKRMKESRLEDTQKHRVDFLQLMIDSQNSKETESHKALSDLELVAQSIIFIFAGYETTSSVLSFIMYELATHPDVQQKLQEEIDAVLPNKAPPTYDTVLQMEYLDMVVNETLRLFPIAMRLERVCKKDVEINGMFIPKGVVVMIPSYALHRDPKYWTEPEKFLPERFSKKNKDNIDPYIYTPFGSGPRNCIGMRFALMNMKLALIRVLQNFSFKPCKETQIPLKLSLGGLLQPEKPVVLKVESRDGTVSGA
HDAC2, sequence (Q92769 whole entry): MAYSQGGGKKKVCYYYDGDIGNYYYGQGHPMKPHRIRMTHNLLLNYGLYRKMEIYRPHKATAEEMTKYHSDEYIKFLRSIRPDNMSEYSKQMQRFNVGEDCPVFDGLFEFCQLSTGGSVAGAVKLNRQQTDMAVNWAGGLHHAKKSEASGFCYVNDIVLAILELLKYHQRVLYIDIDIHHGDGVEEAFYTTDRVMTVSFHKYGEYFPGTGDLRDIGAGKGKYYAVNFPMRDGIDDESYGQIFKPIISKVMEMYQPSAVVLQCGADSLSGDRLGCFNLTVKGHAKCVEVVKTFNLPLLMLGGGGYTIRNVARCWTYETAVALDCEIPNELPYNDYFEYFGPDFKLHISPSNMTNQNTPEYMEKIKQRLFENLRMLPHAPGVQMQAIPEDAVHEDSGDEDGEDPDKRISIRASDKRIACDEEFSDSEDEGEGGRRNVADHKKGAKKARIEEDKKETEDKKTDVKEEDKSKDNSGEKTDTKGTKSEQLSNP

As usually defined, the T/C is the result in the treated group divided by that in the control group, in per cent. Turning to `CN(Cc1nc2c(N3CCOCC3)nc(-c3ccc(N)cc3)nc2n1C)c1ncc(C(=O)NO)cn1.CS(=O)(=O)O` [PM, 2-(((2-(4-Aminophenyl)-9-methyl-6-(4-morpholinyl)-9H-purine-8-yl)methyl)methylamino)-N-hydroxy-5-pyrimidine-carboxamide Mesylate], the “induction of CYP3A4” value in the data set on CYP3A4 [1] is on record as “did not act as an inducer”. For the same compound, the IC50 is less than 5 nM in [2]; greater than 10000 nM at CYP3A4 [6] (midazolam as the substrate); 1130 nM against CYP3A4 [6] (testosterone as the substrate); 1.4 nM on HDAC2; 426 nM on HDAC5; 0.81 to 11.5 nM in the data set with HDAC I/IIb. In data set [3], the complete remission result is given as “all mice achieved complete remission”. The median survival time is listed as 66 days in data set [4] (2.5 mg/kg, solvent control 21 days); 73 days in data set [4] (10 mg/kg); 67.5 days in data set [9] (satellite groups, PM 5 mg/kg alone or combined, control regimens). In addition, the “mature osteoclast formation (TRAP staining)” value in [5] was “obviously suppressed mature osteoclast cells formation”. Besides, the “concentration inducing increased acetylation of histone H3 and H4” value in [7] was in the range of 0.3 to 1 nM. The mortality result in data set [8] (3, 10, 30 mg/kg) is reported as “no mortality”. Moreover, the “highest no serious toxicity dose (HNSTD)” value in [8] (three times a week, four weeks) is on record as 30 mg/kg. For the same compound, the T/C in data set [9] (1.25 mg/kg) amounted to 13.9%; in data set [9] (2.5 mg/kg), 6.6%; in data set [9] (5 mg/kg), 2.7%; in data set [9] (10 mg/kg), 2.2%. For the same compound, the tumor inhibition rate in data set [9] (1.25 mg/kg) was found to be 81.61%; in [9] (2.5 mg/kg), 92.33%; in [9] (5 mg/kg), 97.77%; in data set [9] (10 mg/kg), 97.77%. Further, in the data set on CHL cells, the “chromosomal aberration test result” value is given as “negative”.
